Patent US6608086B2, “Dihydropyridines and new uses thereof” (Synaptic Pharmaceutical Corporation, priority 1993, dated 2003)
Where two headings read alike, the source gives them in different places.

How the values were obtained:
[1] = target: T1, α1A Human Adrenergic Receptor (Homo sapiens, UniProt P25100); assay: Radioligand binding, [3H]prazosin, cloned human α1A adrenergic receptor; conditions: [3H]prazosin
T1 construct: The entire coding region of α1A (1719 bp); expressed in transfected cells
T1 sequence (P25100 1-572): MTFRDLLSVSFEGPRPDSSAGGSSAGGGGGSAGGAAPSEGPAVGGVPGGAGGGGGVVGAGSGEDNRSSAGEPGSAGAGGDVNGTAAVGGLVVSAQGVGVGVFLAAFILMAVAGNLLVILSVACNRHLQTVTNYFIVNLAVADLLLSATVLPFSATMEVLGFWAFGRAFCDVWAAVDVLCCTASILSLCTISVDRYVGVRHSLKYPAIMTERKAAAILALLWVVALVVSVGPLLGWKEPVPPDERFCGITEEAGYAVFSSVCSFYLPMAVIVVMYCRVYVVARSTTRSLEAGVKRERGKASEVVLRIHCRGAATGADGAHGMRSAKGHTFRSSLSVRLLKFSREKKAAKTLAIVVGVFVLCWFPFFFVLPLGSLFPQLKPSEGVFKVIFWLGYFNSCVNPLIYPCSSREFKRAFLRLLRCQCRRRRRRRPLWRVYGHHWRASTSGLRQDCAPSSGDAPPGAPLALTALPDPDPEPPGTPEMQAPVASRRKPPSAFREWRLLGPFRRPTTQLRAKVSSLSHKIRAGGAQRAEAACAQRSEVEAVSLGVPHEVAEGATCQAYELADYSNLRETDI
Experimental: (§1) The protocols for these experiments are given below.
(§2) These cell lines were prepared by transfecting the cloned cDNA or cloned genomic DNA or constructs containing both genomic DNA and cDNA encoding the human α-adrenergic receptors as follows:
α1A Human Adrenergic Receptor:
The cells were grown, in a controlled environment (37° C., 5% CO2), as monolayers in Dulbecco's modified Eagle's Medium (GIBCO, Grand Island, N.Y.) containing 25 mM glucose and supplemented with 10% bovine calf serum, 100 units/ml penicillin g, and 100 μg/ml streptomycin sulfate.
(§3) Radioligand Binding Assays:
(§4) Transfected cells from culture flasks were scraped into 5 ml of 5 mM Tris-HCl, 5 mM EDTA, pH 7.5, and lysed by sonication. The cell lysates were centrifuged at 1000 rpm for 5 min at 4° C., and the supernatant was centrifuged at 30,000× g for 20 min at 4° C. The pellet was suspended in 50 mM Tris-HCl, 1 mM MgCl2, and 0.1% ascorbic acid at pH 7.5. Binding of the α1 antagonist [^3H]prazosin (0.5 nM, specific activity 76.2 Ci/mmol) to membrane preparations of LM(tk−) cells was done in a final volume of 0.25 ml and incubated at 37° C. for 20 min. Nonspecific binding was determined in the presence of 10 μM phentolamine. The reaction was stopped by filtration through GF/B filters using a cell harvester.

[2] = target: T2, α1C Human Adrenergic Receptor (Homo sapiens, UniProt P35348); assay: Radioligand binding, [3H]prazosin, cloned human α1C adrenergic receptor
T2 construct: The entire coding region of α1C (1401 bp); expressed in transfected cells
T2 sequence (P35348 1-466): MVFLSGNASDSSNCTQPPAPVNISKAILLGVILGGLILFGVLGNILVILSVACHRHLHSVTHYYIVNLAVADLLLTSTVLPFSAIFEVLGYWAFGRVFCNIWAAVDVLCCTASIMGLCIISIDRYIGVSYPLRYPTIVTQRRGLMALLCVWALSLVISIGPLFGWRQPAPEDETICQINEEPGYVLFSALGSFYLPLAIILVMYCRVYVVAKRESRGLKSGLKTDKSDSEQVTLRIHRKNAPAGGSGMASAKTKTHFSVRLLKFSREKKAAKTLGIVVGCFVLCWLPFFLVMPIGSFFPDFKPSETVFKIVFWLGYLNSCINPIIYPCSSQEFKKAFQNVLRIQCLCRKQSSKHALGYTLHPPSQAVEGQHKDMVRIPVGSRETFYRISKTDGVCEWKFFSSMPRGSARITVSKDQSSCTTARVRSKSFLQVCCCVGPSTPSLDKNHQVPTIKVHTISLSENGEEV
Experimental: as §1, §2
α1C Human Adrenergic Receptor:
The construct involved ligating three partial overlapping fragments: a 5′, 0.6 kb HincII genomic clone, a central 1.8 EcoRI hippocampal cDNA clone, and a 3′ 0.6Kb PstI genomic clone. The hippocampal cDNA fragment overlaps with the 5′ and 3′ genomic clones so that the HincII and PstI sites at the 5′ and 3′ ends of the cDNA clone, respectively, were utilized for ligation. This full-length clone was cloned into the KpnI site of the expression vector, using the 5′ and 3′ KpnI sites of the fragment, derived from vector (i.e., pBluescript) and 3′-untranslated sequences, respectively. Stable cell lines were selected as described above.
as §3, §4

[3] = target: T3, α1B Human Adrenergic Receptor (Homo sapiens, UniProt P35368); assay: Radioligand binding, [3H]prazosin, cloned human α1B adrenergic receptor
T3 construct: The entire coding region of α1B (1563 bp); expressed in transfected cells
T3 sequence (P35368 1-520): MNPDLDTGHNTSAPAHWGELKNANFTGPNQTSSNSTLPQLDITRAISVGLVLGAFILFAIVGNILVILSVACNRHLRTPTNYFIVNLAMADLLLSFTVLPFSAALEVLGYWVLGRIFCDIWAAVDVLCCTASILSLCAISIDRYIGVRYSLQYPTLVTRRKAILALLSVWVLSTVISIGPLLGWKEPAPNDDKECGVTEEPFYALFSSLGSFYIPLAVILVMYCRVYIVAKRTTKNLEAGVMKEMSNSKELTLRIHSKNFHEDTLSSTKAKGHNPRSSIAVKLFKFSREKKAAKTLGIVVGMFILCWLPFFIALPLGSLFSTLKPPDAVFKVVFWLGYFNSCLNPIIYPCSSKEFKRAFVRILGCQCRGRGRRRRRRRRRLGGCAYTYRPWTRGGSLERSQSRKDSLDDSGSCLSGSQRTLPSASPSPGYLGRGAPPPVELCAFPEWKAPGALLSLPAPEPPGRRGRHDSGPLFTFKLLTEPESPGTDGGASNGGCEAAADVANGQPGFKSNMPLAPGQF
Experimental: as §1, §2
α1B Human Adrenergic Receptor:
The construct involved ligating the full-length containing EcoRI brainstem cDNA fragment from λ ZapII into the expression vector. Stable cell lines were selected as described above.
as §3, §4

[4] = cloned human receptor, LM(tk-) cell membranes, mean, read-out: PKi alpha-1 1a (converted)
[5] = cloned human receptor, LM(tk-) cell membranes, mean, read-out: PKi alpha-1 1c (converted)
[6] = cloned human receptor, LM(tk-) cell membranes, mean, read-out: PKi alpha-1 1b (converted)
[7] = cloned human α1A receptor, LM(tk−) cell membranes, read-out: pKi alpha-1 1a (converted)
[8] = cloned human α1C receptor, LM(tk−) cell membranes, read-out: pKi alpha-1 1c (converted)
[9] = cloned human α1B receptor, LM(tk−) cell membranes, read-out: pKi alpha-1 1b (converted)

| Structure (SMILES) | Ki [1, 4] [nM] | Ki [2, 5] [nM] | Ki [3, 6] [nM] | melting point | Ki [1, 7] [nM] | Ki [2, 8] [nM] | Ki [3, 9] [nM] |
| --- | --- | --- | --- | --- | --- | --- | --- |
| CCOC(=O)C1(c2ccccc2)CCN(CCCNC(=O)C2=C(COCCN=[N+]=[N-])NC(CC)=C(C(N)=O)C2c2ccc([N+](=O)[O-])cc2)CC1 (centres unmarked) [Example 190, 2-[(2-Azidoethoxy)methyl]-5-carboxamido-3-{N-[3-(4-ethoxycarbonyl-4-phenylpiperidin-1-yl)propyl]}carboxamido-1,4-dihydro-6-ethyl-4-(4-nitrophenyl)pyridine] | 1350 | 5.37 | 708 | 63 to 64 °C | – | – | – |
| CCC1=C(C(=O)NC)C(c2ccc([N+](=O)[O-])cc2)C(C(=O)NCCCN2CCC(C(c3ccccc3)c3ccccc3)CC2)=C(CC)N1 (centres unmarked) [Example 109, 2,6-Diethyl-1,4-dihydro-5-(N-methyl) carboxamido-4-(4-nitrophenyl)-3-{-[13-(4-diphenylmethylpiperidin-1-yl)propyl]}carboxamidopyridine] | – | – | – | 128 °C (dec.) | 851 | 66.1 | 275 |
| CCOC(=O)C1(c2ccccc2)CCN(CCCNC(=O)C2=C(COCCN=[N+]=[N-])NC(CC)=C(C(=O)NC)C2c2ccc([N+](=O)[O-])cc2)CC1 (centres unmarked) [Example 191, 2-[(2-Azidoethoxy)methyl]-3-{N-[3-(4-ethoxycarbonyl-4-phenyl-piperidin-1-yl)propyl]}carboxamido-1,4-dihydro-6-ethyl-5-(N-methyl)carboxamido-4-(4-nitrophenyl)pyridine] | 1950 | 8.13 | 1350 | 67 to 68 °C | – | – | – |
| CCOC(=O)C1(c2ccccc2)CCN(CCCNC(=O)C2=C(COCCN=[N+]=[N-])NC(CC)=C(C(=O)OC)C2c2ccc([N+](=O)[O-])cc2)CC1 (centres unmarked) [Example 195, 2-[(2-Azidoethoxy)methyl]-3-{N-[3-(4-ethoxycarbonyl-4-phenylpiperidin-1-yl)propyl]}carboxamido-1,4-dihydro-6-ethyl-5-methoxycarbonyl-4-(4-nitrophenyl)pyridine] | 288 | 7.08 | 129 | 56 to 57 °C | – | – | – |
| CC1=C(C(=O)O)C(c2ccc([N+](=O)[O-])cc2)C(C(=O)NCCCN2CCC(c3ccccc3)(c3ccccc3)CC2)=C(COCCN=[N+]=[N-])N1 (centres unmarked) [Example 153, 2-((2-Azidoethyl)oxy)methyl-1,4-dihydro-6-methyl-4-(4-nitro) phenyl-3-(N-(3-(4,4-diphenylpiperidin-1-yl)propyl))carboxamidopyridine-5-carboxylic acid] | – | – | – | 135 °C (dec.) | 1910 | 24 | 380 |
| CC1=C(C(N)=O)C(c2ccc([N+](=O)[O-])cc2)C(C(=O)NCCCN2CCC(C#N)(c3ccccc3)CC2)=C(COCCN=[N+]=[N-])N1 (centres unmarked) [Example 214, 2-((2-Azidoethyl)oxy)methyl-5-carboxamido-3-(N-(3-(4-cyano-4-phenylpiperidin-1-yl)propyl)) carboxamido-1,4-dihydro-6-methyl-4-(4-nitro)phenylpyridine] | 2570 | 6.17 | 776 | 81 °C (dec.) | – | – | – |
| CC1=C(C(N)=O)C(c2ccc([N+](=O)[O-])cc2)C(C(=O)NCCCN2CCC(c3ccccc3)(c3ccccc3)CC2)=C(COCCN=[N+]=[N-])N1 (centres unmarked) [Example 154, 2-((2-Azidoethyl)oxy)methyl-5-carboxamido-1,4-dihydro-6-methyl-4-(4-nitro)phenyl-3-(N-(3-(4,4-diphenylpiperidin-1-yl)propyl))carboxamidopyridine] | – | – | – | 90 to 95 °C (dec.) | 112 | 1.82 | 87.1 |
| CCC1=C(C(=O)NC)C(c2ccc([N+](=O)[O-])cc2)C(C(=O)NCCCN2CCC(c3ccccc3)(c3ccc(OC)cc3)CC2)=C(CC)N1 (centres unmarked) [Example 107] | – | – | – | 133 °C (dec.) | 871 | 5.89 | 1000 |
| CCC1=C(C(=O)O)C(c2ccc([N+](=O)[O-])cc2)C(C(=O)NCCCN2CCC(c3ccccc3)(c3ccccc3)CC2)=C(COC)N1 (centres unmarked) [Example 136, 6-Ethyl-1,4-dihydro-2-(methyloxy)methyl-4-(4-nitro)phenyl-3-(N-(3-(4,4-diphenylpiperidin-1-yl)propyl))carboxamidopyridine-5-carboxylic acid] | – | – | – | 120 to 125 °C (dec.) | 832 | 3.47 | 407 |
| CCNC(=O)C1=C(CC)NC(CC)=C(C(=O)NCCCN2CCC(c3ccccc3)(c3ccc(OC)cc3)CC2)C1c1ccc([N+](=O)[O-])cc1 (centres unmarked) [Example 111, 2,6-Diethyl-5-(N-ethyl)carboxamido-1,4-dihydro-3-{N-[3-(4-(4-methoxy)phenyl-4-phenylpiperidin-1-yl)propyl]}carboxamido-4-(4-nitrophenyl)pyridine] | – | – | – | 172 °C (dec.) | 1780 | 5.75 | 955 |
| CCC1=C(C(=O)NC)C(c2ccc([N+](=O)[O-])cc2)C(C(=O)NCCCN2CCC(C(N)=O)(c3ccccc3)CC2)=C(CC)N1 (centres unmarked) [Example 110, 3-{N-[3-(4-Carboxamido-4-phenylpiperidin-1-yl)propyl]}carboxamido-2,6-diethyl-1,4-dihydro-5-(N-methyl)carboxamido-4-(4-nitrophenyl)pyridine] | – | – | – | 124 °C (dec.) | 17800 | 1550 | 31600 |
